Assay results published in patent US20040039053A1, “Use of(-) (3-halomethylphenoxy) (4-halophenyl) acetic acid derivatives for treatment of insulin resistance, type 2 diabetes, hyperlipidemia and hyperuricemia” (priority 2000, published 2004).
pIC50: −log10 of the molar value.

Tests used:
Zucker fatty rats = test: Oral glucose challenge in Zucker fatty rats (Example 10); format: in vivo; conditions: racemate 100 mg/kg, enantiomers 50 and 100 mg/kg
Protocol: Prior to treatment, rats were assigned to 6 groups based on body weight. Each treatment group consisted of 8 rats. […] The gavage volume was 10 ml/kg. All rats received an oral glucose challenge (1.9 g/kg) 5.5 hours after the treatment and 4 hours after withdrawal of the food. Blood samples were taken at 0, 15, 30, 60, 90, 120, and 180 minutes following the glucose challenge for plasma glucose measurement. […] On day 5, rats received the intravenous insulin (0.75 U/kg) 5.5 hours after the last dose and 4 hours after withdrawal of the food. Blood samples were taken at 3, 6, 9, 12, 15 and 18 minutes following the insulin injection for plasma glucose measurement.

[1] = tested on: Zucker Diabetic Fatty rats; test: Lipid lowering activity in Zucker Diabetic Fatty rats (Example 11); format: in vivo; conditions: ZDF rats, 13 days; racemate 50 mg/kg/day, enantiomers 25 mg/kg/day
Protocol: Male Zucker diabetic fatty (ZDF) rats were obtained from GMI Laboratories (Indianapolis, Ind.) at 9 weeks of age. Vehicle or enantiomers of halofenate administered by oral gavage on a daily basis starting at 74 days of age. Initial blood samples were obtained for analysis one day before treatment and at the indicated times in the treatment protocol. Blood was analyzed for plasma triglyceride and cholesterol by standard techniques.

diabetic ob/ob mice [2] = test: Time course of glucose-lowering after a single oral dose in ob/ob mice (Example 8); format: in vivo; conditions: single oral dose 250 mg/kg
diabetic ob/ob mice [3] = test: Glucose and insulin lowering on daily oral administration for 5 days in ob/ob mice (Example 9); conditions: 250 mg/kg/day oral
Protocol: Animals were housed (4-5 mice/cage) under standard laboratory conditions at 22° C. and 50% relative humidity, and were maintained on a diet of Purina rodent chow and water ad libitum. Prior to treatment, blood was collected from the tail vein of each animal. Mice that had non-fasting plasma glucose levels between 300 and 520 mg/dL were used. Each treatment group consisted of 10 mice that were distributed so that the mean glucose levels were equivalent in each group as the start of the study. […] The gavage volume was 10 ml/kg. Blood samples were taken at 3, 6, 27, 30 and 120 hour after the first dose and analyzed for plasma glucose and insulin. The animals were fasted overnight (14 hours) before the 120 hours sampling. Plasma glucose concentrations were determined calorimetrically using glucose oxidase method (Sigma Chemical Co, St. Louis, Mo., USA). Plasma insulin concentrations were determined by using the Rat Insulin RIA Kit from Linco Research Inc. (St. Charles, Mo., USA). Significance difference between groups (comparing drug-treated to vehicle-treated) was evaluated using Student unpaired t-test.

patients with diabetes = conditions: cited from earlier work
[4] = target: T1, cytochrome P450 2C9 (CYP2C9) (Homo sapiens, UniProt P11712); test: biochemical
Protocol: (§1) Tolbutamide hydroxylation activity (100 μM C-tolbutamide; 1 mM NADPH) was assayed in pooled human liver microsomes (0.6 mg protein/ml)) for 60 minutes at 37° C. both with and without test compounds.

[5] = target: T1, cytochrome P450 2C9 (CYP2C9); test: Inhibition of CYP2C9 tolbutamide hydroxylation activity in pooled human liver microsomes (Example 7)
Protocol: as §1

[6] = Plasma hydrolysis of (−) CPTA prodrug esters in human plasma (Example 21); format: in vitro ADME; conditions: human plasma (heparinized, pooled), 125 or 250 μM, 37° C., hydrolysis to (−) CPTA; read-out: Plasma T1/2 (converted)
Protocol: This example illustrates the plasma hydrolysis of various prodrug esters of the (S)-enantiomer of CPTA at physiological conditions. Hydrolysis was monitored and analyzed by HPLC. The hydrolytic product was identified by comparison to authentic (−) CPTA and the hydrolytic rates were calculated. [drawing 83]
Human plasma (heparinized, pooled) was obtained from Golden West Biololgicals Inc., USA; Plasma incubation was carried out in a Water Bath Shaker (New Brunswick Scientific, Inc.); Sample analyses were carried out on Agilent HPLC 1100 system.
Prepare 31.25 or 62.5 mM prodrug stock solutions in 100% DMSO. Add 4 μL of 31.25 or 62.5 mM prodrug stock solutions to 1.0 mL of plasma in a microcentrifuge tube to make plasma concentration at 125 or 250 μM, mix gently. Aliquots of 50 μL are transferred to 15 microcentrifuge vials. Three samples are immediately removed to a freezer at about −80° C. (0 time point), the remaining samples are incubated in a bath shaker at 37° C. Three samples are removed at 30 min, 2, 7 and 24 hr, and stored at −80° C. until analysis. The relative concentrations of MBX-compounds are determined by HPLC methods. If there are enough data points, the hydrolytic rate can be calculated using WinNonlin software. Table 10 provides a summary of plasma half-lives of some pro-drug esters and FIGS. 20A-20G illustrate the hydrolytic curves of those prodrug esters.

CYP2C19 = CYP2C19 (Homo sapiens, UniProt P33261); test: Cytochrome P450 isoform inhibition in human hepatic microsomes, S-mephenytoin (Example 18); format: in vitro ADME; conditions: both sexes, human, pooled human hepatic microsomes, probe S-mephenytoin 50 μM; positive control 10 μM
CYP2C9 = CYP2C9 (Homo sapiens, UniProt P11712)
Sequence of CYP2C9 (P11712 whole entry): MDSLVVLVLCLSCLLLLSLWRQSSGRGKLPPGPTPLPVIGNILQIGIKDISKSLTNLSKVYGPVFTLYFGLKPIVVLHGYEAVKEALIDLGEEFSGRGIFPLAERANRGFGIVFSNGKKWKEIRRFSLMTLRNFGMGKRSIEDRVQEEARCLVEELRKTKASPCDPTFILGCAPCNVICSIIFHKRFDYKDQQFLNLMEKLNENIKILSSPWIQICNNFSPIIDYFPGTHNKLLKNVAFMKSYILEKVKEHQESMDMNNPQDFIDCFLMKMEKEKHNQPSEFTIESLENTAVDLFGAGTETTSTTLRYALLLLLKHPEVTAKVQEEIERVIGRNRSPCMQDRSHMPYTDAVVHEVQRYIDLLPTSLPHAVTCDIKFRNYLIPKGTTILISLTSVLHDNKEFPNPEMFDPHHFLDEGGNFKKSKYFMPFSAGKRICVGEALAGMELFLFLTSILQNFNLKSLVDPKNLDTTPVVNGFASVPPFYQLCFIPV

T1 sequence (P11712 whole entry): as above
Sequence of CYP2C19 (P33261 whole entry, canonical isoform): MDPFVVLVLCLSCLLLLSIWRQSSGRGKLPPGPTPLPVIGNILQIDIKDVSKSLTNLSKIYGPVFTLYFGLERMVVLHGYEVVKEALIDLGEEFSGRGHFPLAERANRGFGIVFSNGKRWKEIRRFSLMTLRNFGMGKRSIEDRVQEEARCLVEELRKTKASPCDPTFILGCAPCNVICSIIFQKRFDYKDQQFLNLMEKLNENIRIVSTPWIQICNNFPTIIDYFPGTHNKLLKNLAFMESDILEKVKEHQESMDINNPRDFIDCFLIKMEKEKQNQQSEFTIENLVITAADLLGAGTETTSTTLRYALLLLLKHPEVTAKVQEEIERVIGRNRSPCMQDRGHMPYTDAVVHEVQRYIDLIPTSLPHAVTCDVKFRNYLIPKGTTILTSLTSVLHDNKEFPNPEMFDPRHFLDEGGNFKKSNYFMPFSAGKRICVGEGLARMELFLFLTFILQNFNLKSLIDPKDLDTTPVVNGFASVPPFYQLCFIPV

Compound | half-life [6] [h] | other results
CC(=O)NCCOC(=O)C(Oc1cccc(C(F)(F)F)c1)c1ccc(Cl)cc1 (racemic) [racemic halofenate, 2-acetamidoethyl (4-chlorophenyl) (3-trifluoromethylphenoxy) acetate, reference compound] |  | plasma glucose after oral glucose challenge, in words (Zucker fatty rats; single oral dose 5.5 hours before challenge): plasma glucose was reduced; incremental glucose area under the curve (AUC) vs control, in words (Zucker fatty rats; single oral dose): not statistically significant; plasma cholesterol course during treatment, in words [1]: plasma cholesterol declined with treatment; time of peak glucose-lowering activity (diabetic ob/ob mice [2]): 9 h; time points with significant (p<0.05) decrease in glucose compared to control (diabetic ob/ob mice [2]): most of the timepoints; time points with significant plasma glucose reduction vs control (diabetic ob/ob mice [3]): Significant decreases in glucose levels; time points with reduced plasma insulin vs control (diabetic ob/ob mice [3]; listed as racemate, 250 mg/kg/day): insulins were lower; side effects noted (patients with diabetes; previous studies): gastrointestinal bleeding from stomach and peptic ulcers; effect on glucose in patients with diabetes (patients with diabetes; treated with racemic halofenate alone): minimal effect on glucose
O=C(O)C(Oc1cccc(C(F)(F)F)c1)c1ccc(Cl)cc1 (racemic) [racemic halofenic acid, 4-Chlorophenyl-(3-trifluoromethylphenoxy)-acetic Acid] |  | pIC50 [4]: 6.35; inhibition of cytochrome P450 2C9, in words [5]: found to inhibit cytochrome P450 2C9
C=CCOC(=O)C(Oc1cccc(C(F)(F)F)c1)c1ccc(Cl)cc1 (single isomer, unassigned) [Compound 19.1] | 5.5 | 
O=C(NCCOC(=O)C(Oc1cccc(C(F)(F)F)c1)c1ccc(Cl)cc1)c1cccs1 (single isomer, unassigned) [Compound 19.2] | < 1 | 
O=C(NCCOC(=O)C(Oc1cccc(C(F)(F)F)c1)c1ccc(Cl)cc1)c1ccccc1 (single isomer, unassigned) [Compound 19.4] | < 1 | 
O=C(OCC(=O)N1CCOCC1)C(Oc1cccc(C(F)(F)F)c1)c1ccc(Cl)cc1 (single isomer, unassigned) [Compound 19.5] | < 0.5 | 
CCOC(=O)C(Oc1cccc(C(F)(F)F)c1)c1ccc(Cl)cc1 (single isomer, unassigned) [Compound 19.7] | < 7 | 
CS(=O)(=O)NCCOC(=O)C(Oc1cccc(C(F)(F)F)c1)c1ccc(Cl)cc1 (single isomer, unassigned) [Compound 19.10] | < 1 | 
CN(C)C(=O)COC(=O)C(Oc1cccc(C(F)(F)F)c1)c1ccc(Cl)cc1 (single isomer, unassigned) [Compound 19.11] | < 0.5 | 
CCOC(=O)COC(=O)C(Oc1cccc(C(F)(F)F)c1)c1ccc(Cl)cc1 (single isomer, unassigned) [Compound 19.12] | < 0.5 | 
O=C(OCC(=O)N1CCC1)C(Oc1cccc(C(F)(F)F)c1)c1ccc(Cl)cc1 (single isomer, unassigned) [Compound 19.13] | < 0.5 | 
O=C(OCCO)C(Oc1cccc(C(F)(F)F)c1)c1ccc(Cl)cc1 (single isomer, unassigned) [Compound 19.14] | < 2 | 
CC(C)C(=O)NCCOC(=O)C(Oc1cccc(C(F)(F)F)c1)c1ccc(Cl)cc1 (single isomer, unassigned) [Compound 19.15] | < 1 | 
NC(=O)C1CCCN1C(=O)COC(=O)C(Oc1cccc(C(F)(F)F)c1)c1ccc(Cl)cc1 (single isomer, unassigned) [Compound 19.16] | < 0.5 | 
COCC(=O)NCCOC(=O)C(Oc1cccc(C(F)(F)F)c1)c1ccc(Cl)cc1 (single isomer, unassigned) [Compound 19.17] | < 1 | 
O=C(OCc1cccnc1)C(Oc1cccc(C(F)(F)F)c1)c1ccc(Cl)cc1 (single isomer, unassigned) [Compound 19.18] | < 1 | 

Compound | half-life [6] [h] | other results
COC(=O)C1CCCN1C(=O)COC(=O)C(Oc1cccc(C(F)(F)F)c1)c1ccc(Cl)cc1 (single isomer, unassigned) [Compound 19.19] | < 0.5 | 
O=C(NCCOC(=O)C(Oc1cccc(C(F)(F)F)c1)c1ccc(Cl)cc1)c1cccnc1 (single isomer, unassigned) [Compound 19.20] | < 0.5 | 
O=C(NCCOC(=O)C(Oc1cccc(C(F)(F)F)c1)c1ccc(Cl)cc1)OCc1ccccc1 (single isomer, unassigned) [Compound 19.21] | < 2 | 
CCNC(=O)NCCOC(=O)C(Oc1cccc(C(F)(F)F)c1)c1ccc(Cl)cc1 (single isomer, unassigned) [Compound 19.22] | < 1 | 
CC(=O)OCCOC(=O)C(Oc1cccc(C(F)(F)F)c1)c1ccc(Cl)cc1 (single isomer, unassigned) [Compound 19.23] | < 1 | 
Cc1oc(=O)oc1COC(=O)C(Oc1cccc(C(F)(F)F)c1)c1ccc(Cl)cc1 (single isomer, unassigned) [Compound 19.24] | < 0.5 | 
O=C(Oc1ccccc1)C(Oc1cccc(C(F)(F)F)c1)c1ccc(Cl)cc1 (single isomer, unassigned) [Compound 19.25] | < 0.5 | 
O=C(NCCOC(=O)C(Oc1cccc(C(F)(F)F)c1)c1ccc(Cl)cc1)c1ccncc1 (single isomer, unassigned) [Compound 19.26] | < 1 | 
NCC(=O)OCCOC(=O)C(Oc1cccc(C(F)(F)F)c1)c1ccc(Cl)cc1 (single isomer, unassigned) [Compound 19.28] | < 0.5 | 
C#CCOC(=O)C(Oc1cccc(C(F)(F)F)c1)c1ccc(Cl)cc1 (single isomer, unassigned; (-)) [Compound 19.3, (−)-propargyl 4-chloro-alpha-(3-trifluoromethylphenoxy)benzeneacetate] | < 1 | 
O=C(OCc1ccccc1)C(Oc1cccc(C(F)(F)F)c1)c1ccc(Cl)cc1 (single isomer, unassigned; (-)) [Compound 19.6, (−)-benzyl 4-chloro-alpha-(3-trifluoromethylphenoxy)benzeneacetate] | 6.3 | 
COCCOC(=O)C(Oc1cccc(C(F)(F)F)c1)c1ccc(Cl)cc1 (single isomer, unassigned; (-)) [Compound 19.8, (−)-2-methoxyethyl 4-chloro-alpha-(3-trifluoromethylphenoxy)benzeneacetate] | < 2 | 
CCOC(=O)NCCOC(=O)C(Oc1cccc(C(F)(F)F)c1)c1ccc(Cl)cc1 (single isomer, unassigned; (-)) [Compound 19.9, (−)-2-ethoxycarbonylaminoethyl 4-chloro-alpha-(3-trifluoromethylphenoxy)benzeneacetate] | < 1 | 
CC(OC(=O)OC1CCCCC1)OC(=O)C(Oc1cccc(C(F)(F)F)c1)c1ccc(Cl)cc1 (single isomer, unassigned; (-)) [Compound 19.27, (−)-1-(cyclohexyloxycarbonyloxy)ethyl 4-chloro-alpha-(3-trifluoromethylphenoxy)benzeneacetate] | < 1 | 
COc1ccc2[nH]c([S+]([O-])Cc3ncc(C)c(OC)c3C)nc2c1 (centres unmarked) [OMP, omeprazole, reference compound] |  | inhibition at 30 min, 10 μM (CYP2C19): 50%
Nc1ccc(S(=O)(=O)Nc2ccnn2-c2ccccc2)cc1 [SFZ, sulfaphenazole, reference compound] |  | Tolbutamide 4-OH TB Production (CYP2C9): BQL
